Test results from ChEMBL document CHEMBL5727979, “Thiazolidinedione derivative and use thereof” (2020).

Molecular target: T1, 15-hydroxyprostaglandin dehydrogenase [NAD(+)] (Homo sapiens, UniProt P15428)
T1 sequence (P15428 whole entry): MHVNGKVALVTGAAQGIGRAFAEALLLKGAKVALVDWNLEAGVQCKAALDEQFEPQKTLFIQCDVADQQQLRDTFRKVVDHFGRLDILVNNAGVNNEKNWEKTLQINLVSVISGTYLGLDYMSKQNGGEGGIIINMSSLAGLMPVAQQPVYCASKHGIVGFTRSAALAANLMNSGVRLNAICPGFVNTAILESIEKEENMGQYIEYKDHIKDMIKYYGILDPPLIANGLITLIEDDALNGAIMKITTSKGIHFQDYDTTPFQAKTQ
Assay: Inhibitory Activity Assay: To confirm whether the compounds according to the present disclosure have an effect of inhibiting 15-PGDH, the NADH, which appears at the wavelength of 340 nm, of Compounds 1 to 105 purified in (1) nm was measured by using fluorescence spectra photometer. That is, the cells were treated with a solution including 50 mM Tris-HCl (pH 7.5), 0.1 mM DTT, 0.25 mM (NAD+), 10 μg of purified 15-PGDH enzyme, 21 μM PGE2. and various concentrations (0.0001 μM to 64 μM) of the derivative compound according to the present disclosure. In this case, the total volume of the solution was 2 ml. Then, the absorbance of the reaction mixture was recorded at the wavelength of 340 nm. To measure the activity of the derivative compounds according to the present disclosure, which is an inhibitor of 15-PGDH, the average value of NADH absorbance at 340 nm at various concentrations was obtained from a standard curve. The results of the 15-PGDH inhibitory activity of the derivative compounds according to the present disclosure are shown in Tables 1 and 2 below.

| SMILES | IC50 [nM] |
| --- | --- |
| O=C1NC(=O)/C(=C/c2ccc(OC(=O)C3CCC3)cc2)S1 | 431 |
| O=C(CCC1CCCC1)Oc1ccc(/C=C2\SC(=O)NC2=O)c(Cl)c1 | 50.8 |
| O=C1NC(=O)/C(=C/c2ccc(OC(=O)c3ccccc3)cc2)S1 | 124 |
